According to ChEMBL document CHEMBL1151026, “Synthesis and pharmacological evaluation of the enantiomers of the dopamine autoreceptor agonist PD 135385” (Bioorg Med Chem Lett, 1993):
pIC50: −log10 of the molar value.

Experiments:
Rattus norvegicus [1] = assay: Percent reversal of the increase inDOPA levels in the striatum of GBL-treated rats at 10 mg/kg administered intraperitoneally; format: functional; settings: route intraperitoneal; for Reversal % at 10 mg/kg: ip
Rattus norvegicus [2] = assay: Tested for % rats with stereotypy at the dose of 67 mg/Kg administered perorally; format: functional
D(2) dopamine receptor [3] = molecular target: T1, D(2) dopamine receptor (Rattus norvegicus, UniProt P61169); assay: Displacement of [3H]spiperone from rat striatal Dopamine receptor D2
D(1A) dopamine receptor = D(1A) dopamine receptor (Rattus norvegicus, UniProt P18901); assay: In vitro antagonist binding affinity was determined by displacing the [3H]-SCH- in rat striatal Dopamine receptor D1
D(2) dopamine receptor [4] = molecular target: T1, D(2) dopamine receptor; assay: In vitro agonist binding affinity was determined by displacing the [3H]N-propylnorapomorphine ([3H]NPA) in rat striatal Dopamine receptor D2
Rattus norvegicus [5] = assay: Tested for locomotor activity in rat by peroral administration; format: functional; settings: po
Rattus norvegicus [6] = assay: Tested for inhibition of dopamine neuronal firing in rat at the dose of 2.5 mg/Kg by intraperitoneal administration; format: functional; settings: ip
Mus musculus [7] = assay: Tested for locomotor activity (LMA) in mouse by intraperitoneal administration; format: functional; settings: ip
Rattus norvegicus [8] = assay: Tested for locomotor activity (LMA) in rat by peroral administration; format: functional; settings: po
Rattus norvegicus [9] = assay: Tested for % rats with stereotypy at the dose of 116 mg/Kg administered perorally; format: functional
Rattus norvegicus [10] = assay: Tested for inhibition of Dopamine neuronal firing in rat at the dose of 2.5 mg/Kg by intraperitoneal administration; format: functional; settings: ip
Rattus norvegicus [11] = assay: Tested for % rats with stereotypy at the dose of 61 mg/Kg administered perorally; format: functional
Rattus norvegicus [12] = assay: Tested for locomotor activity in Rat by peroral administration; format: functional; settings: po
Mus musculus [13] = assay: Tested for locomotor activity (LMA) in mouse by intraperitoneal administration for the dose >30 mg/kg; format: functional; settings: ip
Rattus norvegicus [14] = assay: Tested for locomotor activity (LMA) in rat by peroral administration for the dose for the dose of >10 mg/kg; format: functional; settings: po
Rattus norvegicus [15] = assay: Percent reversal of the increase inDOPA levels in the striatum of GBL-treated rats when administered intraperitoneally was determined; format: functional; settings: ip
Rattus norvegicus [16] = assay: Tested for % rats with stereotypy at the dose of 20 mg/Kg administered perorally; format: functional
Rattus norvegicus [17] = assay: Tested for % rats with stereotypy at the dose of 0.3 mg/Kg subcutaneous administration; format: functional
Rattus norvegicus [18] = assay: Tested for locomotor activity in rat by subcutaneous administration; settings: sc
Rattus norvegicus [19] = assay: Tested for inhibition of dopamine neuronal firing in rat at the dose of 0.25 mg/Kg by intraperitoneal administration; format: functional; settings: ip

D(1A) dopamine receptor, sequence (P18901 whole entry): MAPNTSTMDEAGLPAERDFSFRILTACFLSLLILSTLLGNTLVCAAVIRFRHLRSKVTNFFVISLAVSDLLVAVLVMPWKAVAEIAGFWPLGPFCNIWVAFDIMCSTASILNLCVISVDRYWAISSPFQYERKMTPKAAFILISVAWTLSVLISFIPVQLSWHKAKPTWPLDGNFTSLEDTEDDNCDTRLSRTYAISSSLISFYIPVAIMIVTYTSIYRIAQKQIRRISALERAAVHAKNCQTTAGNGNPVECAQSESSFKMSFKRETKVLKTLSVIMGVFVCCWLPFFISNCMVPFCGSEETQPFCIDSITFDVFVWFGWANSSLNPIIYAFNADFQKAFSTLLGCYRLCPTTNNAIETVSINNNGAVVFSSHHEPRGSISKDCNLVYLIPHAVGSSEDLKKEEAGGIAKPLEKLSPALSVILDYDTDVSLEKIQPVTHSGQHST
T1 sequence (P61169 whole entry): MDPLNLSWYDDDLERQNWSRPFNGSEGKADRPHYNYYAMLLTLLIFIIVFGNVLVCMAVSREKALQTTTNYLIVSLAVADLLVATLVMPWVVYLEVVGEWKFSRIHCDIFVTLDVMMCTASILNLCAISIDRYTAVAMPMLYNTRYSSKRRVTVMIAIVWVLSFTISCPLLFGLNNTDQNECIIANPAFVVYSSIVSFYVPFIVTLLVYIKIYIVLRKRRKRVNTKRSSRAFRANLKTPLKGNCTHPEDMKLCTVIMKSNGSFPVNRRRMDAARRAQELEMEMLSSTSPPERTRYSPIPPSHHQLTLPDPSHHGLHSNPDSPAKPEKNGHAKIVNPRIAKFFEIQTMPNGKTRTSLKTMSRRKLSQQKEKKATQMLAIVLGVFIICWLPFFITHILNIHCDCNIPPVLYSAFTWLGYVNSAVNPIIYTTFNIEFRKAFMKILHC

C1=C(c2ccccc2)CCC(CCN2CCN(c3ccccn3)CC2)C1 (racemic)
Reversal % at 10 mg/kg (Rattus norvegicus [1]): 50%
Activity (Rattus norvegicus [2]): 0%
pIC50 (D(2) dopamine receptor [3]): 6.39
pIC50 (D(1A) dopamine receptor): < 5.22
pIC50 (D(2) dopamine receptor [4]): 7.06
ED50 (Rattus norvegicus [5]): 6.7 mg/kg
inhibition in vivo at 2.5 mg/kg (Rattus norvegicus [6]): 41%

C1=C(c2ccccc2)CCC(N2CCN(c3ccccn3)CC2)C1 (stereo not drawn)
ED50 (Mus musculus [7]): 1 mg/kg
ED50 (Rattus norvegicus [8]): > 30 mg/kg
pIC50 (D(2) dopamine receptor [3]): 6.22

C1=C(c2cccs2)CCC(N2CCN(c3ccccn3)CC2)C1 (stereo not drawn)
ED50 (Mus musculus [7]): 9.3 mg/kg
ED50 (Rattus norvegicus [8]): > 30 mg/kg
pIC50 (D(2) dopamine receptor [3]): 6.45

C1=C(c2ccccc2)CCC(CN2CCN(c3ccccn3)CC2)C1 (stereo not drawn)
ED50 (Mus musculus [7]): ~30 mg/kg
pIC50 (D(2) dopamine receptor [3]): ~5.00

C1=C(c2ccccc2)CC[C@@H](CCN2CCN(c3ccccn3)CC2)C1
Reversal % at 10 mg/kg (Rattus norvegicus [1]): 57%
Activity (Rattus norvegicus [9]): 60%
pIC50 (D(2) dopamine receptor [3]): 6.26
pIC50 (D(1A) dopamine receptor): < 5.22
pIC50 (D(2) dopamine receptor [4]): 7.19
ED50 (Rattus norvegicus [5]): 9.1 mg/kg
inhibition in vivo at 2.5 mg/kg (Rattus norvegicus [10]): 58%

C1=C(c2ccccc2)CC[C@H](CCN2CCN(c3ccccn3)CC2)C1
Reversal % at 10 mg/kg (Rattus norvegicus [1]): 49%
Activity (Rattus norvegicus [11]): 0%
pIC50 (D(2) dopamine receptor [3]): 6.15
ED50 (Rattus norvegicus [12]): 6.1 mg/kg
pIC50 (D(1A) dopamine receptor): < 5.22
pIC50 (D(2) dopamine receptor [4]): 7.09
inhibition in vivo at 2.5 mg/kg (Rattus norvegicus [6]): 38%

C1=C(c2cccs2)CCC(CN2CCN(c3ccccn3)CC2)C1 (stereo not drawn)
ED50 (Mus musculus [7]): > 30 mg/kg
pIC50 (D(2) dopamine receptor [3]): 5.61

C1=C(c2ccccn2)CCC(CCN2CCN(c3ccccn3)CC2)C1 (stereo not drawn)
Reversal (Rattus norvegicus [1]): 89%
ED50 (Mus musculus [13]): 0.4 mg/kg
pIC50 (D(2) dopamine receptor [3]): 6.89
ED50 (Rattus norvegicus [14]): ~3 mg/kg

C1=C(c2ccccn2)CCC(N2CCN(c3ccccn3)CC2)C1 (stereo not drawn)
Reversal (Rattus norvegicus [1]): 75%
ED50 (Mus musculus [7]): 0.9 mg/kg
ED50 (Rattus norvegicus [8]): 5.8 mg/kg
pIC50 (D(2) dopamine receptor [3]): 5.93

CN1CCC=C2c3nc(N)sc3CCC21 (racemic)
ED50 (Rattus norvegicus [15]): 0.7 mg/kg
pIC50 (D(2) dopamine receptor [3]): 5.53
pIC50 (D(1A) dopamine receptor): < 5.00
pIC50 (D(2) dopamine receptor [4]): 6.69
ED50 (Rattus norvegicus [5]): 0.8 mg/kg
inhibition in vivo at 2.5 mg/kg (Rattus norvegicus [6]): 99%
Activity (Rattus norvegicus [16]): 0%

C1=C(c2ccccc2)CCC(CCN2CCN(c3ccccn3)CC2)C1 (stereo not drawn)
Reversal (Rattus norvegicus [1]): 50%
ED50 (Mus musculus [7]): 2.1 mg/kg
ED50 (Rattus norvegicus [8]): 6.7 mg/kg

C1=C(c2cccs2)CCC(CCN2CCN(c3ccccn3)CC2)C1 (stereo not drawn)
Reversal (Rattus norvegicus [1]): 46%
ED50 (Mus musculus [7]): 8.4 mg/kg
ED50 (Rattus norvegicus [8]): 13 mg/kg
pIC50 (D(2) dopamine receptor [3]): 6.36

CN1CCc2cccc3c2[C@H]1Cc1ccc(O)c(O)c1-3 [APOMORPHINE]
Activity (Rattus norvegicus [17]): 100%
ED50 (Rattus norvegicus [15]): 0.3 mg/kg
ED50 (Rattus norvegicus [18]): 0.03 mg/kg
ED50 (Rattus norvegicus [5]): > 30 mg/kg
inhibition in vivo at 0.25 mg/kg (Rattus norvegicus [19]): 100%
